In patent publication US9878984B2, “Anti-cancer compounds” (NORTHWESTERN UNIVERSITY, priority 2008, dated 2018):

Key:
[1] = tested on: HeLa, PC-3M, and MDA-MB-231; assay: MTS growth inhibition assay, human cancer cell lines; type: cell-based; conditions: 72 hr, MTS proliferation assay
Protocol: Cell Culture: HeLa (cervical carcinoma), WI-38 (normal human […] fibroblasts), and MDA-MB-231 (breast carcinoma), cells were cultured in DMEM (Invitrogen—Carlsbad, Calif.) and PC-3M (metastatic prostate carcinoma) cells were cultured in RPMI-1640. Peripheral blood mononuclear cells (PBMCs) were voluntarily collected from a healthy laboratory worker by standard sterile phlebotomy techniques and isolated using Vacutainer CPT collection tubes (BD Biosciences—Bedford, Mass.). PBMCs were isolated freshly for each experiment. All DMEM and RPMI-1640 media was supplemented with 10% FBS (Atlanta Biologicals—Lawrenceville, Ga.) and 100 U/mL penicillin and streptomycin (Invitrogen). […]
Growth Inhibition Assays: HeLa, MDA-MB-231, PC-3M, WI-38, and HUVEC cells were plated at 5,000 cells per well in 96 well plates and allowed to attach for 20 hr (8 hr for HeLa). […] Cell proliferation was measured at t=0 (time at start of treatment) and t=72 hr using MTS AQueous non-radioactive proliferation assay (Promega—Madison, Wis.). […] The absorbance at 490 nm in each well was read with a Spectramax 250 plate reader (Molecular Devices—Sunnyvale, Calif.). […] Data were fit to one site dose response curves in order to obtain specific growth inhibitory concentrations and the relative standard errors of the mean for these concentrations were calculated by the XLfit4 software. […]

Chk2 = assay: DNA damage response assay (pThr68-Chk2 / total Chk2 western blot); type: cell-based, human; conditions: HeLa cells, [GI99%], 20 hr, normalized to mitoxantrone
Protocol: DNA Damage Response Assay: 250,000 HeLa cells were plated in 35 mm culture dishes and allowed to attach for 8 hr and were then treated with the [GI99%] of each compound for 20 hr (total media volume was […] with 1% DMSO). After treatment cells were lysed in 150 μL detergent buffer containing 1:100 v/v protease inhibitor cocktail (Sigma—St. Louis, Mo.). Lysates were run on denaturing 12% acrylamide gels and transferred to nitrocellulose membranes. The membranes were blocked in blotto, incubated in anti-pThr68-Chk2 antibody (Cell Signaling—Danvers, Mass.) at 1:500 v/v dilution in blotto overnight 4° C., washed, incubated in HRP conjugated anti-rabbit secondary antibody (Jackson) at 1:5,000 v/v dilution in blotto for 1 hr, and then developed. The membranes were then stripped with a reducing buffer, blocked in blotto, incubated in anti-Chk2 antibody (Biolegend—San Diego, Calif.) at 1:500 v/v dilution in blotto overnight at 4° C., washed, incubated in HRP conjugated anti-mouse secondary antibody (Jackson) at 1:5,000 v/v dilution in blotto for 1 hr, and then developed. Membranes were developed with PicoWest Developing Solution (Pierce) and exposed to film. The intensities of bands were quantified as described in the previous section. The data are expressed as the average ratio of pThr68-Chk2 to total Chk2 as normalized to the mitoxantrone control in each of three independent experiments.
Topoisomerase inhibition by most mechanisms should cause activation of DNA damage response pathways because of the production of single and double strand DNA breaks, as is the case with amonafide. […] Therefore, measuring the DNA damage response at a fixed cytotoxic dose ([GI99%]) will determine the extent that DNA damage contributes to the cytotoxicity of these compounds. […] Activation of Chk2 was determined by measuring the ratio of pThr68-Chk2 to total Chk2 in HeLa cells treated with the [GI99%].

SMILES	growth inhibition potency [1]	DNA damage response (ratio of pThr68-Chk2 to total Chk2) (Chk2)
CN(C)CCN1C(=O)c2cccc3c(N)ccc(c23)C1=O [A1, 6-amino-2-[2-(dimethylamino)ethyl]-1H-benz[de]isoquinoline-1,3(2H)-dione]	near identical to amonafide	–
CN(C)CCN1C(=O)c2cccc3cc(N)cc(c23)C1=O [amonafide, reference compound]	–	evoked the strongest DNA damage response
